Experimental data from US20190133128A1, “Fungicidal pyridazinones” (FMC Corporation, priority 2017, published 2019).

What was measured:
Format in all cases: in vivo
Phakopsora pachyrhizi = assay: Test A: preventive spray on soybean seedlings, Asian soybean rust, visual disease rating; settings: 250 ppm, 100 = 100% disease control, 0 = no control
[1] = tested on: Erysiphe graminis f. sp. tritici; assay: Test G: preventive spray on wheat seedlings, wheat powdery mildew, visual disease rating; settings: 250 ppm, 100 = 100% disease control, 0 = no control
How it was run: (§1)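 Preventive foliar spray of wheat seedlings to run-off, at 250 ppm or other indicated rate. Compounds dissolved in acetone (3% of final volume), suspended in 50/50 acetone–water with PEG400 surfactant. Disease rated visually.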

Phytophthora infestans = assay: whole plant or invertebrate; settings: 250 ppm; tomato seedlings; 100 = 100% disease control, 0 = no control
[2] = tested on: Puccinia recondita f. sp. tritici; assay: Test F: preventive spray on wheat seedlings, wheat leaf rust, visual disease rating; settings: 250 ppm, 100 = 100% disease control, 0 = no control
How it was run: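 Preventive test: wheat seedlings were sprayed to run-off with compound suspended in acetone/water 50/50 plus PEG400 (250 ppm or other indicated rate). One day later they received Puccinia recondita f. sp. tritici spores, and disease was scored visually.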

Botrytis cinerea = assay: Test C: preventive spray on tomato seedlings, gray mold, visual disease rating; settings: 250 ppm, 100 = 100% disease control, 0 = no control
How it was run: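 Tomato seedlings received a run-off spray, typically 250 ppm (or stated rate), ahead of gray mold inoculation and visual scoring. Test suspensions: acetone stock (3% of volume) diluted into 1:1 acetone/water containing PEG400.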

Zymoseptoria tritici = assay: Test E: preventive spray on wheat seedlings, wheat leaf blotch, visual disease rating; settings: 250 ppm, 100 = 100% disease control, 0 = no control
How it was run: as §1

Plasmopara viticola = assay: Test B: preventive spray on grape seedlings, grape downy mildew, disease rating; settings: 250 ppm, 100 = 100% disease control, 0 = no control
How it was run: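 Compounds were dissolved in acetone (3% of final volume) and suspended in 50/50 acetone/water with PEG400. They were sprayed at 250 ppm or another indicated rate to run-off on grape seedlings as a preventive treatment before downy mildew challenge, followed by disease rating.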

| Compound | Test A disease control rating (Phakopsora pachyrhizi) [%] | Test G disease control rating [1] [%] | Test D disease control rating (Phytophthora infestans) [%] | Test F disease control rating [2] [%] | Test C disease control rating (Botrytis cinerea) [%] | Test E disease control rating (Zymoseptoria tritici) [%] | Test B disease control rating (Plasmopara viticola) [%] |
| --- | --- | --- | --- | --- | --- | --- | --- |
| Cn1ncc(O)c(C(=O)Nc2ccc(Cl)cc2F)c1=O [Compound 123] | 81 | 92 | 90 | 100 | 63 | 91 | 90 |
| CONc1cnn(C)c(=O)c1C(=O)Nc1ccc(OC(F)(F)F)cc1 [Compound 127] | 0 | 0 | 0 | 0 | 0 | 27 | 23 |
| Cn1ncc(OC/C=C/c2ccccc2)c(C(=O)Nc2ccc(OC(F)(F)F)cc2)c1=O [Compound 132] | 0 | 97 | 17 | 91 | 0 | 50 | 25 |
| Cn1ncc(O)c(C(=O)Nc2ccc(F)cc2Cl)c1=O [Compound 134] | 75 | 90 | 0 | 32 | 0 | 45 | 92 |
| CON(C)c1cnn(C)c(=O)c1C(=O)Nc1ccc(OC(F)(F)F)cc1 [Compound 135] | 0 | 0 | 0 | 0 | 0 | 2 | 27 |
| Cn1ncc(O)c(C(=O)Nc2ccc(C(F)(F)F)cc2Cl)c1=O [Compound 137] | 0 | 47 | 97 | 96 | 0 | 30 | 100 |
| Cn1ncc(O)c(C(=O)Nc2ccc(CC(F)(F)F)cc2)c1=O [Compound 140] | 0 | 27 | 96 | 99 | 0 | 88 | 100 |
| Cn1ncc(O)c(C(=O)Nc2ccc(OC(F)(F)F)cc2Cl)c1=O [Compound 142] | 71 | 98 | 92 | 99 | 26 | 77 | 99 |
| CCCC[N+](CCCC)(CCCC)CCCC.Cn1ncc([O-])c(C(=O)Nc2ccc(S(F)(F)(F)(F)F)cc2)c1=O [Compound 143] | 62 | 69 | 70 | 94 | 0 | 88 | 100 |
| CNc1cnn(C)c(=O)c1C(=O)Nc1ccc(OC(F)(F)F)cc1 [Compound 146] | 0 | 0 | 0 | 0 | 0 | 0 | 10 |
| Cn1ncc(O)c(C(=O)Nc2ccc(C(F)(F)F)cc2C(F)(F)F)c1=O [Compound 147] | 0 | 98 | 99 | 99 | 0 | 87 | 97 |
